The test system of one data set is mTOR substrate 4EBP1. Nature of the data set: Phosphorylation of mTOR substrate 4EBP1 and of AKT (western blot). The following applies: HCT116 cells. Background: Immunoblotting shows a protein as a band on a membrane.
The next data set concerns LC3-I and LC3-II. Nature of the data set: LC3-I / LC3-II induction in HCT116 (western blot, LC3 staining). The format is cell-based. The following applies: for Induction of LC3-I and LC3-II: HCT116 cells. How it is done:
FIG. 4B: Staining of CB21-treated cells with an antibody to LC3. […] Cells were treated for 6 hours (6 μM), and then incubated further. Protein were extracted and subjected to western blot analysis. […] FIGS. 4F-4H: Morphology of peripheral and core cells visualized by electron microscopy. MCS were treated for 6 hours with 6 μM C21 and incubated further in drug-free medium for the times indicated and sectioned.
MCSs contain mostly non-proliferating cells. […] The mechanism(s) of action was studied in more detail. […] LC3-II (the PE-conjugated form of LC3) is a protein marker regarded to be most reliably associated with autophagosomes (19).

Data set [1] has as its system HCT116 MCS. In kind it is cell-based.
Experimental: Cell viability was determined using the acid phosphatase test.
(§1) HCT116 colon carcinoma cells were maintained in McCoy's 5A modified medium/10% fetal calf serum at 37° C. in 5% CO2. […] A cell suspension containing 10,000 cells (200 μl) was added to each well of poly-HEMA coated 96 well plates. The wells were then overfilled by adding an additional 170 μl media to acquire a convex surface curvature. Plasticine spacers (3 mm) were placed in the corners of each plate to prevent the lids from touching the media. The plates were then inverted in order to allow the cells to sediment to the liquid/air interface and incubated in gentle shaking. After 24 hrs incubation the plates were returned to normal. First excess media was removed by aspiration and then plasticine spacers. The plates were incubated for 4 days prior to drug treatment.
Viability measurements were performed by the acid phosphatase (APH) method described by Friedrich et al. (14). Background activity was subtracted.
A further data set has as its system monolayer HCT116 cells. Nature of the data set: Proliferation / viability of monolayer HCT116 cells.
For data set [2], the system named is HCT116 MCS. The data set can be described thus: Pimonidazole staining of sectioned spheroids (indirect measure of respiration/hypoxia). The format is cell-based.
Experimental: as §1
MCS produced by the hanging drop method in 96 well plates were fixed in paraformaldehyde, dehydrated, embedded in paraffin and sectioned. Each sample contained 32 MCS (MCS from each 96 well plate were pooled into 3 groups). The sections were deparaffinized with xylene, rehydrated and microwaved, and then incubated overnight with the monoclonal primary antibodies diluted in 1% (weight/volume) bovine serum albumin and visualized by standard avidin-biotin-peroxidase complex technique (Vector Laboratories, Burlingame, Calif., USA). Counterstaining was performed with Mayer's haematoxylin. […]

SMILES strings stand for the structures.

Experimental for mTOR substrate 4EBP1: Cell extract proteins were resolved by Tris-Acetate PAGE gels (Invitrogen, Carlsbad, Calif.) and transferred onto a polyvinylidene difluoride (PVDF) membrane. The membranes were incubated overnight with antibodies, washed and incubated with HRP-conjugated anti-rabbit Ig (Amersham Biosciences, Little Chalfont, UK) for 1 h. Peroxidase activity was developed by SuperSignal West Pico (Pierce Biotechnology, Rockford, Ill.) according to manufacturer's instructions.
Experimental for monolayer HCT116 cells: HCT116 MCS were treated for 6 hours with 6 μM CB21, followed by changing to drug-free medium and further incubation. MCS were sectioned and stained for active caspase-3. […] Cells were incubated for 30 minutes with EdU, fixed and analyzed by ArrayScan. […] Cells were seeded at 7,000 or 70,000 per well in 96 well plates in the presence or absence of CB21.
Cells were fixed and stained for LC3 after drug treatment at the times indicated. […] Cells were treated with 6 μM CB21 and/or 10 μM bafilomycin A and cells were photographed at the times Indicated. […] HCT116 cells were treated with 6 μM CB21 and/or 10 μM chloroquine. Cell proliferation was monitored by calculation of culture confluency.
HCT116 colon carcinoma cells were maintained in McCoy's 5A modified medium/10% fetal calf serum at 37° C. in 5% CO2. MCS were prepared using a modification of our previously described method (12). A cell suspension containing 10,000 cells (200 μl) was added to each well of poly-HEMA coated 96 well plates. The wells were then overfilled by adding an additional 170 μl media to acquire a convex surface curvature. […] Caspase cleaved keratin-18 (K18-Asp396) was determined using 25 mL medium/extract using the M30 CytoDeath ELISA assay (a variant of the M30-Apoptosense® ELISA (13) developed for in-vitro use (Peviva AB, Bromma, Sweden)). […]

With `Cn1c(=O)n(-c2ccc(C(C)(C)C#N)cc2)c2c3cc(-c4cnc5ccccc5c4)ccc3ncc21` [NVP-BEZ235], in the data set on mTOR substrate 4EBP1, the 4EBP1 phosphorylation entry is “decrease”. Besides, the “Induction of LC3-I and LC3-II” value in the data set with LC3-I and LC3-II (6 h) is “weak induction”; in the data set on LC3-I and LC3-II (24 h) it was “no induction observed”. Further, the “viability of the cells in the core of the MCS” value with HCT116 MCS [1] is “did not affect the viability”.

For the molecule `CO/C1=C\C(C)=C\[C@@H](C)[C@@H](O)[C@@H](C)C/C(C)=C/C=C/[C@H](OC)[C@@H]([C@@H](C)[C@@H](O)[C@H](C)[C@@]2(O)C[C@@H](O)[C@H](C)[C@@H](C(C)C)O2)OC1=O` [bafilomycin A], in the data set on monolayer HCT116 cells (HCT116, 10 μM bafilomycin A, 6 μM CB21), the “time at which cytotoxicity was observed” value is about 72 h. Also, in the data set on LC3-I and LC3-II (HCT116 cells treated with CB21, 10 μM Bafilomycin A), the “appearance of large cytoplasmic LC3-II positive vesicles” value is “suppresses the appearance of large cytoplasmic LC3-II positive vesicles”.

On to `N#CC(C#N)=NNc1cccc(Cl)c1` [CCCP, carbonylcyanide-3-chlorophenylhydrazone], for which the “Pimonidazole positive area (%)” value with HCT116 MCS [2] (10 μM, 6 h) worked out at 79.9%.

For `CCN(CC)CCCC(C)Nc1ccnc2cc(Cl)ccc12` (stereo not drawn) [CQ, Chloroquine], the “proliferation / cell death of monolayer HCT116 cells” value with monolayer HCT116 cells (10 μM chloroquine, 6 μM CB21, culture confluency) is reported as “no effect”.

As to `CO[C@H]1C[C@@H]2CC[C@@H](C)[C@@](O)(O2)C(=O)C(=O)N2CCCC[C@H]2C(=O)O[C@H]([C@H](C)C[C@@H]2CC[C@@H](O)[C@H](OC)C2)CC(=O)[C@H](C)/C=C(\C)[C@@H](O)[C@@H](OC)C(=O)[C@H](C)C[C@H](C)/C=C/C=C/C=C/1C` [Rapamycin], the “Pimonidazole positive area (%)” value in the data set with HCT116 MCS [2] (10 nM, 5 h) is 42.2%.

Source of the values: US10022380B2, “Treatment of solid tumours” (Vivolux AB, priority 2012, dated 2018).
